Results: patent publication US9833455B2, “Preparation and methods of use for ortho-aryl 5-membered heteroaryl-carboxamide containing multi-targeted kinase inhibitors” (Spacefill Enterprises LLC, priority 2011, dated 2017)
Where two headings read alike, the source gives them in different places.

Experiments:
Assay type in all cases: biochemical
[1] = target: T1, BRAF (Homo sapiens, UniProt P15056); experiment: Reaction Biology P33 radiolabeled kinase assay, IC50 and time dependence; conditions: for IC50: ATP 10 uM, read-out: Compound IC50* BRAF
T1 construct: literature Ambit Biosciences
Experimental: (§1) “Inhibiting kinase activity” means to decrease the production of an phosphor-peptide by a particular kinase that can be separated by analytical techniques. For example, a comprehensive platform of kinase, protease, phosphatase and epigenetic assays that utilizes cutting-edge microfluidics and informatics tools to provide accurate and rapid results. Profiling data in this application were determined using these techniques at Nanosyn Inc. IC50 data were provided by Reaction Biology Inc using a P33 radiolabeled kinase assay.
(§2) The observation of potency and isoform selectivity with time-dependency for PI3K-γ appears to be unprecedented in the literature. In addition, these activities combined with inhibition of p38-α, Raf-1, DDR and CSF-1R, would be complimentary and potentially synergistic activities for both the treatment of certain inflammation based conditions and cancers.

[2] = target: PDGFR-α (Homo sapiens, UniProt P16234); experiment: as above; conditions: for IC50: ATP 10 uM, read-out: Compound IC50* PDGFR-α
Experimental: as §1, §2

[3] = target: T2, c-Kit (Homo sapiens, UniProt P10721); experiment: as above; conditions: for IC50: ATP 10 uM, read-out: Compound IC50* c-Kit
T2 construct: purchased Reaction Biology Inc (contract assay)
Experimental: as §1, §2

[4] = target: T3, P38a/MAPK14 (Homo sapiens, UniProt Q16539); experiment: as above; conditions: for IC50: ATP 10 uM, read-out: Compound IC50* P38a/MAPK14
T3 construct: purchased Reaction Biology Inc (contract assay)
Experimental: as §1, §2

[5] = target: T4, PI3K-β (Homo sapiens, UniProt P42338); experiment: as above; conditions: for IC50: ATP 10 uM, read-out: Compound IC50* PI3K-β
T4 construct: purchased Reaction Biology Inc (contract assay)
Experimental: as §1, §2

[6] = target: T5, RAF1 (Homo sapiens, UniProt P04049); experiment: as above; conditions: for IC50: ATP 10 uM, read-out: Compound IC50* RAF1
T5 construct: literature Ambit Biosciences
Experimental: as §1, §2

[7] = target: PRKD3 (Homo sapiens, UniProt O94806); experiment: Nanosyn kinase profiling, % inhibition; conditions: panel of 230 kinases
Experimental: as §1
(§3) More modest activity for Aurora-A, FLT-1/4, KDR, KIT, PDGFRs was accompanied by better activity for B-Raf mutant and wild-type forms, Modest inhibition of MEK-1, BTK, c-Met, RET, and RON was also observed. […] Moreover, the observed inhibition of MEK-1 with 1-12 and TYK2 with I-6 represents additional activities against kinases for which no type-II inhibitors have been reported to date. […] To further evaluate the scope of inhibition, I-6 was evaluated against a larger panel of 230 kinases, Table-22.

[8] = target: FGR (Homo sapiens, UniProt P09769); experiment: Nanosyn kinase profiling, % inhibition; conditions: panel of 230 kinases
Experimental: as §1, §3

[9] = target: ARG (Homo sapiens, UniProt P42684); experiment: Nanosyn kinase profiling, % inhibition; conditions: panel of 230 kinases
Experimental: as §1, §3

[10] = target: PTK5 (Homo sapiens, UniProt P42685); experiment: Nanosyn kinase profiling, % inhibition; conditions: panel of 230 kinases
Experimental: as §1, §3

[11] = target: SPHK1 (Homo sapiens, UniProt Q9NYA1); experiment: Nanosyn kinase profiling, % inhibition; conditions: panel of 230 kinases
Experimental: as §1, §3

[12] = target: MAP4K2 (Homo sapiens, UniProt Q12851); experiment: Nanosyn kinase profiling, % inhibition; conditions: panel of 230 kinases
Experimental: as §1, §3

[13] = target: BLK (Homo sapiens, UniProt P51451); experiment: Nanosyn kinase profiling, % inhibition; conditions: panel of 230 kinases
Experimental: as §1, §3

[14] = target: ABL1 (Homo sapiens, UniProt P00519); experiment: Nanosyn kinase profiling, % inhibition; conditions: panel of 230 kinases
Experimental: as §1, §3

[15] = target: TRKB (Homo sapiens, UniProt Q16620); experiment: Nanosyn kinase profiling, % inhibition; conditions: panel of 230 kinases
Experimental: as §1, §3

[16] = target: HIPK4 (Homo sapiens, UniProt Q8NE63); experiment: Nanosyn kinase profiling, % inhibition; conditions: panel of 230 kinases
Experimental: as §1, §3

[17] = target: HIPK3 (Homo sapiens, UniProt Q9H422); experiment: Nanosyn kinase profiling, % inhibition; conditions: panel of 230 kinases
Experimental: as §1, §3

[18] = target: HCK (Homo sapiens, UniProt P08631); experiment: Nanosyn kinase profiling, % inhibition; conditions: panel of 230 kinases
Experimental: as §1, §3

[19] = target: AXL (Homo sapiens, UniProt P30530); experiment: Nanosyn kinase profiling, % inhibition; conditions: panel of 230 kinases
Experimental: as §1, §3

[20] = target: MNK2 (Homo sapiens, UniProt Q9HBH9); experiment: Nanosyn kinase profiling, % inhibition; conditions: panel of 230 kinases
Experimental: as §1, §3

[21] = target: LYNA (Homo sapiens, UniProt P07948); experiment: Nanosyn kinase profiling, % inhibition; conditions: panel of 230 kinases
Experimental: as §1, §3

[22] = target: LYNB (Homo sapiens, UniProt P07948); experiment: Nanosyn kinase profiling, % inhibition; conditions: panel of 230 kinases
Experimental: as §1, §3

[23] = target: PAK1 (Homo sapiens, UniProt Q13153); experiment: Nanosyn kinase profiling, % inhibition; conditions: panel of 230 kinases
Experimental: as §1, §3

[24] = target: EPH-A4 (Homo sapiens, UniProt P54764); experiment: Nanosyn kinase profiling, % inhibition; conditions: panel of 230 kinases
Experimental: as §1, §3

[25] = target: JAK2 (Homo sapiens, UniProt O60674); experiment: Nanosyn kinase profiling, % inhibition; conditions: panel of 230 kinases
Experimental: as §1, §3

[26] = target: EPH-A1 (Homo sapiens, UniProt P21709); experiment: Nanosyn kinase profiling, % inhibition; conditions: panel of 230 kinases
Experimental: as §1, §3

[27] = target: TRKC (Homo sapiens, UniProt Q16288); experiment: Nanosyn kinase profiling, % inhibition; conditions: panel of 230 kinases
Experimental: as §1, §3

[28] = target: MEK2 (Homo sapiens, UniProt P36507); experiment: Nanosyn kinase profiling, % inhibition; conditions: panel of 230 kinases
Experimental: as §1, §3

[29] = target: MUSK (Homo sapiens, UniProt O15146); experiment: Nanosyn kinase profiling, % inhibition; conditions: panel of 230 kinases
Experimental: as §1, §3

[30] = target: TYRO3 (Homo sapiens, UniProt Q06418); experiment: Nanosyn kinase profiling, % inhibition; conditions: panel of 230 kinases
Experimental: as §1, §3

[31] = target: SIK (Homo sapiens, UniProt P57059); experiment: Nanosyn kinase profiling, % inhibition; conditions: panel of 230 kinases
Experimental: as §1, §3

[32] = target: SRC (Homo sapiens, UniProt P12931); experiment: Nanosyn kinase profiling, % inhibition; conditions: panel of 230 kinases
Experimental: as §1, §3

[33] = target: MAP4K5 (Homo sapiens, UniProt Q9Y4K4); experiment: Nanosyn kinase profiling, % inhibition; conditions: panel of 230 kinases
Experimental: as §1, §3

T2 sequence (P10721 26-976): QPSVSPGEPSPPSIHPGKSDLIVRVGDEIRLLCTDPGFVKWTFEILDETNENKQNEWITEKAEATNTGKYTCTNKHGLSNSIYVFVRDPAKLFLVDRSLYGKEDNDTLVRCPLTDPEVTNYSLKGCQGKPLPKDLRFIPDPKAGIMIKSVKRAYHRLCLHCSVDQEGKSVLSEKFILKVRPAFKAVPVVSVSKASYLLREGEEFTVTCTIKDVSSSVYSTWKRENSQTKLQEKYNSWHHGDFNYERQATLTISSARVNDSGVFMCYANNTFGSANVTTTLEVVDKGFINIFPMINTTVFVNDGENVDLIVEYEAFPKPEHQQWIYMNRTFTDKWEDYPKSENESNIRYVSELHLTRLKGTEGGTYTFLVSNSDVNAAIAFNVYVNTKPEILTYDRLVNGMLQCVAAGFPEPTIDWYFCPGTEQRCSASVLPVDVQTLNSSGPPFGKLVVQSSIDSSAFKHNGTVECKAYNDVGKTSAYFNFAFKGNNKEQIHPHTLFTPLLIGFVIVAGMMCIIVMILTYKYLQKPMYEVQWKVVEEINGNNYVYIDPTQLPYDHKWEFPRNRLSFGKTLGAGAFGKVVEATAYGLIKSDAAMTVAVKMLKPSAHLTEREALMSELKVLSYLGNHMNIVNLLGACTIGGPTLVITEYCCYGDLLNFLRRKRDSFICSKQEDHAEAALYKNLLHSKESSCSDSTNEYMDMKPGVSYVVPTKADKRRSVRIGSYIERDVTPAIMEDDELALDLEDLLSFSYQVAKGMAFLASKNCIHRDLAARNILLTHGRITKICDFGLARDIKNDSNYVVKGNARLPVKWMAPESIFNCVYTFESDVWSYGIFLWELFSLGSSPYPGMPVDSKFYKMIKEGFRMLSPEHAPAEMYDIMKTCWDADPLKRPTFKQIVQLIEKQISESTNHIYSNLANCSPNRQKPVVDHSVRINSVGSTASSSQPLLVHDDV
T3 sequence (Q16539 whole entry): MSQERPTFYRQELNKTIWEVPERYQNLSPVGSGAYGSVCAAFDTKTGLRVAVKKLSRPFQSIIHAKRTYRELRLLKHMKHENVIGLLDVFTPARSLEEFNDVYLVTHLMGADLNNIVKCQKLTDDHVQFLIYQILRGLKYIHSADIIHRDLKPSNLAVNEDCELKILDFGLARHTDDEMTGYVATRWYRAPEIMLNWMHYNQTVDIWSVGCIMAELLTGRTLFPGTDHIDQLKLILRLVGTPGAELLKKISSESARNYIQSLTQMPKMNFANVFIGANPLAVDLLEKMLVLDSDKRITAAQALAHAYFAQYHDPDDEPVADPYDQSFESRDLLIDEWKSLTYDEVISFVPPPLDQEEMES
T1 sequence (P15056 whole entry): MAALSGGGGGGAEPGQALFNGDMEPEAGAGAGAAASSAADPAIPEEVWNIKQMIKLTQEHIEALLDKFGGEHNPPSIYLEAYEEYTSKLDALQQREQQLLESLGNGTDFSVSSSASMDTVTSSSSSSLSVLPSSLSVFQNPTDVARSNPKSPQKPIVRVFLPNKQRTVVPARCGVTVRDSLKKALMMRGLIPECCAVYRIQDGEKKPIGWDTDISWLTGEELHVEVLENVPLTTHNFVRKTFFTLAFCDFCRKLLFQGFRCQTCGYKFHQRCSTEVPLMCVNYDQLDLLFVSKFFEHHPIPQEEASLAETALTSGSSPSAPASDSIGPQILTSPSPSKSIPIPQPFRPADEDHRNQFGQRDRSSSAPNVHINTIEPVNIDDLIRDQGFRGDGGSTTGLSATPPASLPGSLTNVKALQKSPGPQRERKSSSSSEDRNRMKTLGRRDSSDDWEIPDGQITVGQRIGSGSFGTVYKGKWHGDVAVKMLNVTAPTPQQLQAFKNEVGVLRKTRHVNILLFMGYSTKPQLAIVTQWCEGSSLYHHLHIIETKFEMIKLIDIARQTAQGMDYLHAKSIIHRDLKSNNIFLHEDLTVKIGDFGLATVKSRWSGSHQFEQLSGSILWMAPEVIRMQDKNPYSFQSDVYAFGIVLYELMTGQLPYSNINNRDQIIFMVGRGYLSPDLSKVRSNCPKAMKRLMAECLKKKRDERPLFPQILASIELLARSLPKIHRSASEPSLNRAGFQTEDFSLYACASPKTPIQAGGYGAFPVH
T5 sequence (P04049 whole entry): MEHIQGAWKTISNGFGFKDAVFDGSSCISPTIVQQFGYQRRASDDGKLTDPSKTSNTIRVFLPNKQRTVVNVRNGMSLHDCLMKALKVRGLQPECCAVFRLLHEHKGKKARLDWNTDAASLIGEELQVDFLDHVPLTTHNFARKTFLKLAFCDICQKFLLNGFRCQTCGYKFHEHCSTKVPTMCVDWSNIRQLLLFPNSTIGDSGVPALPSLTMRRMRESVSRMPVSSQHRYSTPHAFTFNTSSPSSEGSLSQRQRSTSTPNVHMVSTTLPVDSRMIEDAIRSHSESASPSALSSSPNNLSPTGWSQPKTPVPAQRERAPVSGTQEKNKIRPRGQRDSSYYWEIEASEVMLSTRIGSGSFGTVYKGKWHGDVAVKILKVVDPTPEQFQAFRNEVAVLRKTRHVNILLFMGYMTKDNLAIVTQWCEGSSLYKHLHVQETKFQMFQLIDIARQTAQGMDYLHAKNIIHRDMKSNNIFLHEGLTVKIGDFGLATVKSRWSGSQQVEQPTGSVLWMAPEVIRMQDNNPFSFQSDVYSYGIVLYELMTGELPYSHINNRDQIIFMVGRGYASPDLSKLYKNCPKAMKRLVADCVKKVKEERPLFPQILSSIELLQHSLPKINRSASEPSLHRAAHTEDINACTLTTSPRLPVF
T4 sequence (P42338 whole entry): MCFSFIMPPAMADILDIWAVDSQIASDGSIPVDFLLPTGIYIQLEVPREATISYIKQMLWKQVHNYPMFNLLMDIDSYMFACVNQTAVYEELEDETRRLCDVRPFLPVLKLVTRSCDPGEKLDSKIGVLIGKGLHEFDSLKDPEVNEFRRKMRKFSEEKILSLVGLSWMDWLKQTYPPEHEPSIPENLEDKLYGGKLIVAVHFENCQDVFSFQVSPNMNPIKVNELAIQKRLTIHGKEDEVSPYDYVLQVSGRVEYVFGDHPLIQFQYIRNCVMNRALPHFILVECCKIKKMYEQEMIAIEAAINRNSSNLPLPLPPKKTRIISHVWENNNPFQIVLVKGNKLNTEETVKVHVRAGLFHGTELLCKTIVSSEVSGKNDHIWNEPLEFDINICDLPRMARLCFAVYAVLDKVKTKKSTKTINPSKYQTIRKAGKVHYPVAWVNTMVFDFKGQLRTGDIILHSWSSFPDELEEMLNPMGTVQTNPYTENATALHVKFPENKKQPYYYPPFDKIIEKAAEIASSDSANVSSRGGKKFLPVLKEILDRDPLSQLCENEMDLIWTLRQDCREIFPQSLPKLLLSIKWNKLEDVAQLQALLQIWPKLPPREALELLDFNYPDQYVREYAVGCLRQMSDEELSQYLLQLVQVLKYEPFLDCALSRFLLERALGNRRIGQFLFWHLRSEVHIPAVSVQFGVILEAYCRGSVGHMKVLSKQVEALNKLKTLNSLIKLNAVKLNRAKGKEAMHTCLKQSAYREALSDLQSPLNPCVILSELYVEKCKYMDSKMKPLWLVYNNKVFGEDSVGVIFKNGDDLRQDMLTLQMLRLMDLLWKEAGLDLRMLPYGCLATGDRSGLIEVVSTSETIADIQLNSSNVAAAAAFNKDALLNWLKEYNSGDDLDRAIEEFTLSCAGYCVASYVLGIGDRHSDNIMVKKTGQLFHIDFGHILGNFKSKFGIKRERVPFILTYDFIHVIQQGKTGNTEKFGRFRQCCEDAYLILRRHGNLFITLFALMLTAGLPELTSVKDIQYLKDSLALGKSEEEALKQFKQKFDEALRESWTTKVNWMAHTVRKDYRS
T4 sequence (P27986 whole entry partner): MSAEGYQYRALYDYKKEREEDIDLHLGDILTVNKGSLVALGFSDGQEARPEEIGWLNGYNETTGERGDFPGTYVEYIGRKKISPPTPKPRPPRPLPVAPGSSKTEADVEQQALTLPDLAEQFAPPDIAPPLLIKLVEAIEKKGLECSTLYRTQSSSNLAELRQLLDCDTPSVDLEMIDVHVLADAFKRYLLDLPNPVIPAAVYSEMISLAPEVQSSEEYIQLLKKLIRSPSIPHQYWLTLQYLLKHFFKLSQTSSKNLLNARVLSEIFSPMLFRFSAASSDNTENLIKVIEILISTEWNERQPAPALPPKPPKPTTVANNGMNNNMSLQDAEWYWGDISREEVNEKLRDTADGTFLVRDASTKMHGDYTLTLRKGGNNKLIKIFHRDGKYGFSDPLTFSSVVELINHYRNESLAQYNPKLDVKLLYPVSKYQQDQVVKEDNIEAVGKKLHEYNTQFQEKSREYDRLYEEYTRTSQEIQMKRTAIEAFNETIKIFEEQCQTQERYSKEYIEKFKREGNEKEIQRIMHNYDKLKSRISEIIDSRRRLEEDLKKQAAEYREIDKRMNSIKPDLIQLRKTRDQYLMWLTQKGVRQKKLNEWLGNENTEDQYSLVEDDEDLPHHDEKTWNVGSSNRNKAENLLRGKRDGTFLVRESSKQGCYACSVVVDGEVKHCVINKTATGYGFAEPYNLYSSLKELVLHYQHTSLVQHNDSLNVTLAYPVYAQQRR
LYNB, sequence (P07948 1-491 isoform P07948-2): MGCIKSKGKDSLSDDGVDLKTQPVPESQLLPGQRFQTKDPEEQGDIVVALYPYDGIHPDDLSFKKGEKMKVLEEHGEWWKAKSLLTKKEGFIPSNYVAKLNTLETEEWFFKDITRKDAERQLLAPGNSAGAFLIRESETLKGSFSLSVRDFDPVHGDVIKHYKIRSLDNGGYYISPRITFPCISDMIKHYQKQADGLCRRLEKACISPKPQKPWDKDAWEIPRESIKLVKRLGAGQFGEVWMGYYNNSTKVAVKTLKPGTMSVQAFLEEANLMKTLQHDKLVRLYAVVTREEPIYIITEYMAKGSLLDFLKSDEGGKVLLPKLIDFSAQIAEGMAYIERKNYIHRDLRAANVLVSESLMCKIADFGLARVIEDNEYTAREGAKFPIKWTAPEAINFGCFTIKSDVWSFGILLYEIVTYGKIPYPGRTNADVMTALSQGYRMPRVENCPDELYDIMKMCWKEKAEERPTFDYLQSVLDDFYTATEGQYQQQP

Cc1ccc(NC(=O)c2nc(S(C)(=O)=O)[nH]c2-c2ccc(F)cc2)cc1Nc1nccc(-c2cccnc2)n1 [Inhibitor I-14, 3-(4-(pyridin-3-yl)-pyrimidinyl-2-yl)amino-4-methyl-analine, 5-(4-Fluorophenyl)-2-(methylsulfonyl)-1H-imidazole-4-carboxamide] was tested, and the “Time Dependence Observed? BRAF” value ([1]; 15 vs 60 Min preincubation) was “Yes”, the IC50 ([1]; preincubation 15 Min) was 388 nM and the IC50 ([1]; preincubation 60 Min) was 323 nM. For the same molecule, the “Time Dependence Observed? PDGFR-α” value ([2]; 15 vs 60 Min preincubation) was “No”, the IC50 ([2]; preincubation 15 Min) was 178 nM and the IC50 ([2]; preincubation 60 Min) was 342 nM. The “Time Dependence Observed? c-Kit” value ([3]; 15 vs 60 Min preincubation) was “No”, the IC50 ([3]; preincubation 15 Min) was 772 nM and the IC50 ([3]; preincubation 60 Min) was 987 nM. For the same molecule, the “Time Dependence Observed? P38a/MAPK14” value ([4]; 15 vs 60 Min preincubation) was “No”, the IC50 ([4]; preincubation 15 Min) was 150 nM and the IC50 ([4]; preincubation 60 Min) was 150 nM. The “Time Dependence Observed? PI3K-β” value ([5]; 15 vs 60 Min preincubation) was “Yes”, the IC50 ([5]; preincubation 15 Min) was 12600 nM and the IC50 ([5]; preincubation 60 Min) was 2910 nM. For the same molecule, the “Time Dependence Observed? RAF1” value ([6]; 15 vs 60 Min preincubation) was “Yes”, the IC50 ([6]; preincubation 15 Min) was 96.5 nM and the IC50 ([6]; preincubation 60 Min) was 81.3 nM.
For CNC(=O)c1cc(Oc2ccc(NC(=O)c3nc(C(F)(F)F)[nH]c3-c3ccc(F)cc3)cc2)ccn1 [Inhibitor I-6, 4-(4-{[5-(4-Fluoro-phenyl)-2-trifluoromethyl-3H-imidazole-4-carbonyl]-amino}-phenoxy)-pyridine-2-carboxylic acid methylamide], the inhibition at 5 µM [7] was ≥ 50%, the inhibition at 5 µM [8] was ≥ 50% and the inhibition at 5 µM [9] was ≥ 50%. The inhibition at 5 µM [10] was ≥ 50%, the inhibition at 5 µM [11] was ≥ 50% and the inhibition at 5 µM [12] was ≥ 50%. For the same molecule, the inhibition at 5 µM [13] was ≥ 50%, the inhibition at 5 µM [14] was ≥ 50% and the inhibition at 5 µM [15] was ≥ 50%. The inhibition at 5 µM [16] was ≥ 50%, the inhibition at 5 µM [17] was ≥ 50% and the inhibition at 5 µM [18] was ≥ 50%. For the same molecule, the inhibition at 5 µM [19] was ≥ 50%, the inhibition at 5 µM [20] was ≥ 50% and the inhibition at 5 µM [21] was ≥ 50%. The inhibition at 5 µM [22] was ≥ 50%, the inhibition at 5 µM [23] was ≥ 50% and the inhibition at 5 µM [24] was ≥ 50%. For the same molecule, the inhibition at 5 µM [25] was ≥ 50%, the inhibition at 5 µM [26] was ≥ 50% and the inhibition at 5 µM [27] was ≥ 50%. For the same molecule, the inhibition at 5 µM [28] was ≥ 50%, the inhibition at 5 µM [29] was ≥ 50% and the inhibition at 5 µM [30] was ≥ 50%. The inhibition at 5 µM [31] was ≥ 50%, the inhibition at 5 µM [32] was ≥ 50% and the inhibition at 5 µM [33] was ≥ 50%.
